Measurements taken from the NIST ThermoML archive (doi:10.1021/acs.jced.9b00436).
Several values for one entry are separate records, joined by “and”; a condition that tells them apart may be missing. Identical values can stand only once.

Legend:
[1] = 100 kPa, Liquid, Frequency=5 MHz, Single path-length method
[2] = xn = mol fraction of the nth substance listed; details: 308 K; 100 kPa; Liquid; Frequency=5 MHz; Single path-length method; x2 = 0.333
[3] = an = ratio of the nth substance listed; details: 100 kPa, Liquid; for viscosity: Falling or rolling sphere viscometry; for speed of sound: Frequency=5 MHz, Single path-length method; for mass density: Vibrating tube method

CCCCCCCCCCCCCCCC [hexadecane]
[1]
Details | speed of sound [m/s]
293 K | 1356
298 K | 1340
303 K | 1325
313 K | 1287
318 K | 1268
323 K | 1248
328 K | 1227
333 K | 1210

O [water]
[1]
Details | speed of sound [m/s]
298 K | 1501
303 K | 1511.5
313 K | 1527.5
318 K | 1535
323 K | 1542
328 K | 1547
333 K | 1550

NC(N)=O [urea] + C[N+](C)(C)CCO.[Cl-]
Details | speed of sound [m/s]
[2] | 2016

[3], a1 = 2
Details | mass density [kg/m3] | speed of sound | viscosity [mPa·s]
293 K | 1200.1 | 2045 m/s | 1372
298 K | 1198.1 | 2035 m/s | 985.1
303 K | 1194.5 | 2027 m/s | 527.3
308 K | 1191.7 | 2020 m/s and 2018 m/s | 397.2
313 K | 1188.7 | 2009 m/s | 238.1
318 K | 1185.5 | 2002 m/s | 181.6
323 K | 1183.1 | 1992 m/s | 119.8
328 K | 1179.2 | 1983 m/s | 98.2
333 K | 1177.3 | 1976 m/s | 68.6

C[N+](C)(C)CCO.[Cl-] [choline chloride] + OCCO
[3], a2 = 2
Details | mass density [kg/m3] | speed of sound [m/s] | viscosity [mPa·s]
293 K | 1117.1 | 1896 | 50
298 K | 1114.5 | 1882 | 40.4
303 K | 1111.4 | 1871 | 33.6
308 K | 1108.6 | 1860 | 27.9
313 K | 1105.7 | 1848 | 23.6
318 K | 1102.6 | 1837 | 19.9
323 K | 1100.1 | 1826 | 17.2
328 K | 1096.7 | 1813 | 14.6
333 K | 1094.7 | 1802 | 12.8

CCCCCCCC[N+](C)(CCCCCCCC)CCCCCCCC.[Br-] [methyltrioctylammonium bromide] + CCCCCCCCCC(=O)O
[3], a2 = 2
Details | mass density [kg/m3] | speed of sound [m/s] | viscosity [mPa·s]
293 K | 945.4 | 1406 | 806
298 K | 942.2 | 1393 | 572.6
303 K | 939.9 | 1375 | 411.4
308 K | 935.2 | 1357 | 305.2
313 K | 931.9 | 1341 | 226.2
318 K | 928.3 | 1326 | 171.5
323 K | 925.3 | 1312 | 132.4
328 K | 923.1 | 1297 | 104.5
333 K | 920.8 | 1283 | 83.7

CCCCCCCCCC(=O)O [decanoic acid] + CCCCCCCCCCCCCC[P+](CCCCCC)(CCCCCC)CCCCCC.[Cl-]
[3], a1 = 2
Details | mass density [kg/m3] | speed of sound [m/s] | viscosity [mPa·s]
293 K | 898.5 | 1437 | 346.3
298 K | 895.4 | 1418 | 260.5
303 K | 893.2 | 1402 | 197.8
308 K | 888.6 | 1384 | 151.6
313 K | 885.4 | 1366 | 117.9
318 K | 881.9 | 1349 | 93.7
323 K | 879.1 | 1333 | 76
328 K | 877.1 | 1314 | 62.8
333 K | 874.9 | 1303 | 52.8

O=C(O)CC(=O)O [propanedioic acid] + C[N+](C)(C)CCO.[Cl-]
[3]
Details | mass density, a1 = 1 [kg/m3] | speed of sound, a1 = 2 [m/s] | viscosity, a1 = 2 [mPa·s]
293 K | 1185.1 | – | –
298 K | 1182.1 | – | –
303 K | 1178.6 | 1876 | 1128.6
308 K | 1175.6 | 1863 | 812.9
313 K | 1172.3 | 1851 | 597.3
318 K | 1169.1 | 1838 | 446.1
323 K | 1166 | 1825 | 342.3
328 K | 1162.7 | 1812 | –
333 K | 1160.3 | 1799 | –

C[N+](C)(C)CCO.[Cl-] [choline chloride] + OCC(O)CO
[3], a2 = 2
Details | mass density [kg/m3] | speed of sound [m/s] | viscosity [mPa·s]
293 K | 1194.3 | 1987 | 473
298 K | 1191.7 | 1975 | 364.4
303 K | 1188.5 | 1963 | 246.8
308 K | 1185.5 | 1952 | 193.8
313 K | 1182.7 | 1941 | 133.4
318 K | 1179.3 | 1932 | 110.4
323 K | 1177 | 1923 | 81.6
328 K | 1173.1 | 1910 | 70.2
333 K | 1171.3 | 1900 | 53.8

CCCCCCCC[N+](CCCCCCCC)(CCCCCCCC)CCCCCCCC.[Br-] [tetraoctylammonium bromide] + CCCCCCCCCC(=O)O
[3], a2 = 2
Details | mass density [kg/m3] | speed of sound [m/s] | viscosity [mPa·s]
293 K | 933.7 | 1416 | 908.9
298 K | 930.6 | 1402 | 648
303 K | 928.4 | 1382 | 472
308 K | 923.7 | 1365 | 350
313 K | 920.5 | 1347 | 264.3
318 K | 916.9 | 1331 | 201.1
323 K | 913.9 | 1317 | 156.9
328 K | 911.8 | 1301 | 123.4
333 K | 909.5 | 1287 | 98.4
